# Data: PMC5430599, “Antiplasmodial dihetarylthioethers target the coenzyme A synthesis pathway in Plasmodium falciparum erythrocytic stages” (Malaria Journal, 2017)
# Tested on: Plasmodium falciparum parasites (3D7 strain)
# Assay: Coenzyme A rescue assay (imaging-based growth inhibition, with or without 0.8 mM CoA)
# Type: cell-based
# Conditions: IC50 CoA / IC50 solvent
# Procedure: Plasmodium falciparum parasites (3D7 strain) were grown in RPMI 1640 supplemented with 25 mM HEPES, 5 mg/mL Albumax II, and 0.37 mM hypoxanthine. Parasites were subjected to two rounds of sorbitol synchronization before undergoing compound treatment. Ring stage parasites were exposed to the experimental compounds alone, or in combination with 0.8 mM coenzyme A (CoA) in 384-wells imaging microplates (CellCarrier, PerkinElmer), as previously described. […] Puromycin 5 µM and untreated solvent were used as in-plate positive and negative controls, respectively. Samples were dissolved in DMSO to a final assay DMSO concentration of 0.4%. […] All sample and control wells contained the same final amounts of solvents. Plates were incubated for 72 h at 90% N2, 5% CO2, 5% O2, then parasites were stained with 2-(4-amidinophenyl)-1H-indole-6-carboxamidine (DAPI), and imaged using an Opera QEHS micro-plate confocal imaging system (PerkinElmer) with 405 nm excitation and 450/50 emission filter, using a 20× water immersion objective. Images were analysed as previously described, to obtain normalized % inhibition data, which were then used to calculate IC50 values, through a four parameter logistic curve fitting in GraphPad Prism v.6. The experiment was carried out in two independent biological replicates, each consisting of two technical replicates. Dose–response curves are illustrated in the Additional file 4.
row,Compound,IC50 shift with CoA supplementation [fold]
1,Nc1nnc(Sc2ncnc3sccc23)s1 [Compound 8f],117
2,c1csc(Sc2ncnc3sccc23)n1 [Compound 8d],67
3,c1coc(Sc2ncnc3sccc23)n1 [Compound 8e],34

# Same assay, conditions: IC50 with 0.8 mM CoA / IC50 solvent; threshold 5× significant
row,Compound,IC50-ratio (CoA/solvent)
1,Nc1nnc(Sc2ncnc3sccc23)s1 [Compound 8f],117
2,c1csc(Sc2ncnc3sccc23)n1 [Compound 8d],67.3
3,c1ccc2[nH]c(Sc3ncnc4sccc34)nc2c1 [Compound 8g],7.23
4,c1coc(-c2nnc(Sc3ncnc4sccc34)o2)c1 [Compound 3a],16.3
5,c1cnc2[nH]c(Sc3ncnc4sccc34)nc2c1 [Compound 8k],7.11
6,c1coc(Sc2ncnc3sccc23)n1 [Compound 8e],34.5

# Same assay, conditions: Plasmodium falciparum, 3D7, 72 h, 0.8 mM CoA (rescue), 72 h; read-out: IC50 [µM], Pf3D7 + 0.8 mM CoA
row,Compound,IC50 [µM]
1,Nc1nnc(Sc2ncnc3sccc23)s1 [Compound 8f],> 11
2,c1csc(Sc2ncnc3sccc23)n1 [Compound 8d],2.6 ± 0.4
3,c1ccc2[nH]c(Sc3ncnc4sccc34)nc2c1 [Compound 8g],0.531 ± 0.007
4,c1coc(-c2nnc(Sc3ncnc4sccc34)o2)c1 [Compound 3a],4.61 ± 0.15
5,c1cnc2[nH]c(Sc3ncnc4sccc34)nc2c1 [Compound 8k],1.06 ± 0.03
6,c1coc(Sc2ncnc3sccc23)n1 [Compound 8e],2.6 ± 0.4
7,Cn1ccnc1Sc1ncnc2sccc12 [Compound 8c],2.31 ± 0.17

# Same assay, conditions: Plasmodium falciparum, 3D7, 72 h, no CoA (solvent, non-rescue), 72 h; read-out: IC50 [µM], Pf3D7 + solvent
row,Compound,IC50 [µM]
1,Nc1nnc(Sc2ncnc3sccc23)s1 [Compound 8f],0.096 ± 0.006
2,c1csc(Sc2ncnc3sccc23)n1 [Compound 8d],0.039 ± 0.001
3,c1ccc2[nH]c(Sc3ncnc4sccc34)nc2c1 [Compound 8g],0.0734 ± 0.0022
4,c1coc(-c2nnc(Sc3ncnc4sccc34)o2)c1 [Compound 3a],0.283 ± 0.073
5,c1cnc2[nH]c(Sc3ncnc4sccc34)nc2c1 [Compound 8k],0.149 ± 0.021
6,c1coc(Sc2ncnc3sccc23)n1 [Compound 8e],0.0747 ± 0.021
7,Cn1ccnc1Sc1ncnc2sccc12 [Compound 8c],1.3

# Same assay, conditions: Plasmodium falciparum, 3D7, no CoA; read-out: IC50, 3D7 strain
row,Compound,IC50 [µM]
1,c1coc(Sc2ncnc3sccc23)n1 [Compound 8e],0.075

# Same assay, conditions: compared to 8c
row,Compound,fold higher antiplasmodial activity [fold]
1,c1coc(Sc2ncnc3sccc23)n1 [Compound 8e],17

# Tested on: THP-1 cells
# Assay: Cytotoxicity assay: human THP-1 cell line (Alamar Blue)
# Type: cell-based
# Conditions: Homo sapiens, THP-1; cytotoxicity, 48 h
# Procedure: THP-1 cells were passed into fresh THP-1 culture medium. Cells were harvested by centrifugation (250×g, 10′, 4 °C), washed three times with RPMI 1640 medium, and diluted to 8 × 10^5 cells/mL. The cells were aliquoted in triplicate (125 μL/well) into 96-well flat-bottom plates containing compounds diluted in complete medium (125 μL/well, containing 0.01% DMSO). THP-1 cells in wells containing medium plus 0.01% DMSO served as negative controls. Cells were incubated with test compounds at 37 °C and 5% CO2 for 48 h prior to the addition of 10% Alamar Blue (25 μL/well). After an additional 4 h the fluorescence was read (λex = 544 nm, λem = 590 nm) using a microplate reader (Fluoroskan Ascent FL, Thermo Fisher Scientific, Waltham, MA, USA). Results were analysed using Prism 4 (GraphPad Software Inc., La Jolla, CA, USA). Experiments were performed in triplicate and were repeated at least twice.
row,Compound,IC50 [µM]
1,Nc1nnc(Sc2ncnc3sccc23)s1 [Compound 8f],11
2,c1csc(Sc2ncnc3sccc23)n1 [Compound 8d],27.5
3,c1ccc2[nH]c(Sc3ncnc4sccc34)nc2c1 [Compound 8g],16.5
4,c1coc(-c2nnc(Sc3ncnc4sccc34)o2)c1 [Compound 3a],6.13
5,c1cnc2[nH]c(Sc3ncnc4sccc34)nc2c1 [Compound 8k],28
6,c1coc(Sc2ncnc3sccc23)n1 [Compound 8e],33.6
7,Cn1ccnc1Sc1ncnc2sccc12 [Compound 8c],> 300

# Same assay, conditions: IC50 THP-1 / IC50 3D7
row,Compound,selectivity THP-1 vs 3D7 parasites [fold]
1,c1coc(Sc2ncnc3sccc23)n1 [Compound 8e],450

# Same assay, conditions: human cell lines vs 3D7
row,Compound,selectivity toward human cell lines [fold]
1,c1coc(Sc2ncnc3sccc23)n1 [Compound 8e],> 100

# Tested on: not listed separately
# Assay: Aqueous thermodynamic solubility, miniaturized shake-flask method with HPLC
# Type: physicochemical
# Conditions: aqueous buffer pH 7.4, shake flask
# Procedure: The aqueous solubility was determined using a miniaturized shake-flask-method. In brief, the compound (0.25–1.0 mg) was incubated in a Whatman Mini-Uniprep vial with aqueous phosphate buffer, pH 7.4, (300 µL) in an incubation shaker (IKA® KS 3000 ic control, Staufen, Germany) at 25 °C, 400 rpm. Presence of undissolved compound was checked at 24 and 48 h. After 24, 48, or 72 h of shaking, the filter plunger was punched into the vial and the concentration in the supernatant was determined by HPLC (AUC method, isocratic HPLC, at specific λmax as indicated in the Additional file 2). For the calibration, at least three different dilutions of the compounds from DMSO stock solutions diluted with ACN were quantified. Preparation of buffer pH 7.4: to a solution of Na2HPO4∙2 H2O (290 mg), K2HPO4 (20 mg) and NaCl (808 mg) in water (ad 100.0 mL), 12% aqueous HCl was added dropwise until the pH reached 7.4. In the case of 3a the concentration in the supernatant was below the limit of quantification. […] Further details of the solubility testing methods are described in Additional file 2, including calibration concentration ranges, composition of chromatographic eluents, and wavelength for measurement of absorbance.
# Two stock solutions of each compound with a concentration of 10 mM (except for 8g: 1 mM) were prepared. Three dilutions with ACN were prepared (concentration range: 3d: 100 µM – […]
# 8g: 10 µM – 0.3 µM; 8k: 100 µM – 10 µM) from the stock solutions of the test compounds and measured as duplicates by HPLC (isocratic elution: solvent indicated in Additional file 2, Table, injection volume: indicated in Additional file 2, Table, flow rate: 1.000 mL/min, column temperature: 40 °C, time of detection: 8 min, detection by DAD at specific λmax as indicated in Additional file 2, Table). The area under the curve (% AUC) of the substance peak was determined and together with the respective concentration a linear calibration graph was created with Microsoft Excel (2010, Microsoft Corporation) for every compound.
# Additional file 2, Table Af1: Solvents for isocratic elution, injection volumes and specific λmax […]
# ID solvent injection volume [µL] λmax [nm]
# Sample preparation and measurement of compound solubility
# Samples of test compounds (0.25‐1.0 mg) were placed in Whatman‐Uni‐Prep® vials and aqueous phosphate buffer, pH 7.4 (300 µL, composition is indicated in Additional file 2, Table Af1) was added. The presence of undissolved compound was a requirement to determine the thermodynamic solubility. The vials were capped with the appropriate filter, […]
# Additionally the vials were sealed with Parafilm M (Bemis Flexible Packaging, Neenah, WI, USA). The samples were incubated in an incubation shaker (IKA® KS 3000 ic control, Staufen, Germany) at 400 rpm and 25 °C for […]
# 24‐72 h. The presence of undissolved compound was checked at 24 and 48 h. Measurement of the samples was performed after 24 h, 48 h and 72 h; he filter plunger was punched into the vial and the concentration in the supernatant was determined by HPLC using the same methods as for the calibration solutions (Additional file 2, Table). All samples were measured in triplicate. By determination of the area under the curve (% AUC) of the substance and the specific linear calibration graph, the concentration of every compound in aqueous buffer solution was calculated. By comparison of the samples after 24 h and 48 h it was checked if equilibrium had been achieved after 24 h; if not, the samples were compared after 48 h and 72 h to check if equilibrium had been achieved after 48 h. In the case of 3a the concentration in the supernatant was below the limit of quantification. Therefore the lowest […]
# Additional file 2, Table Af1: Composition of phosphate buffer pH 7.4 for determination of aqueous solubility. Modified according to Ph. Eur.8 […]
# a Adjustment to pH 7.4 was carried out using a pH meter equipped with a glass electrode. […]
# Lüddens, H., Synthesis of GABA A receptor agonists and evaluation of their α‐ […]
row,Compound,"Log S0, exp"
1,Nc1nnc(Sc2ncnc3sccc23)s1 [Compound 8f],−5.36
2,c1csc(Sc2ncnc3sccc23)n1 [Compound 8d],−4.44
3,c1ccc2[nH]c(Sc3ncnc4sccc34)nc2c1 [Compound 8g],−6.37
4,c1coc(-c2nnc(Sc3ncnc4sccc34)o2)c1 [Compound 3a],<−6.00
5,c1cnc2[nH]c(Sc3ncnc4sccc34)nc2c1 [Compound 8k],−4.11
6,c1coc(Sc2ncnc3sccc23)n1 [Compound 8e],−2.88

# Same assay, conditions: aqueous phosphate buffer, 25 °C, pH 7.4, aqueous buffer, thermodynamic from solid, aqueous buffer pH 7.4, shake flask; read-out: Log S0, exp (converted)
row,Compound,solubility thermodynamic [µM]
1,Cn1ccnc1Sc1ncnc2sccc12 [Compound 8c],1780

# Same assay, conditions: aqueous phosphate buffer, 25 °C, pH 7.4, aqueous buffer, thermodynamic from solid, pH 7.4, shake flask
row,Compound,solubility [µM]
1,c1coc(Sc2ncnc3sccc23)n1 [Compound 8e],1330
2,Cn1ccnc1Sc1ncnc2sccc12 [Compound 8c],> 1000

# Same assay, conditions: aqueous phosphate buffer, 25 °C, pH 7.4, aqueous buffer, thermodynamic from solid, thermodynamic solubility, aqueous buffer pH 7.4, 25 °C; equilibrium after 24 h (c) or 48 h (d) per footnote; read-out: S0, exp
row,Compound,solubility thermodynamic [µM]
1,Nc1nnc(Sc2ncnc3sccc23)s1 [Compound 8f],4.4
2,c1csc(Sc2ncnc3sccc23)n1 [Compound 8d],36.4
3,c1coc(-c2nnc(Sc3ncnc4sccc34)o2)c1 [Compound 3a],< 1
4,c1cnc2[nH]c(Sc3ncnc4sccc34)nc2c1 [Compound 8k],77

# Same assay, conditions: pH 7.4, shake flask; listed as 8e (KuWei173)
row,Compound,aqueous solubility [µM]
1,c1coc(Sc2ncnc3sccc23)n1 [Compound 8e],> 1000

# Same assay, conditions: thermodynamic solubility, aqueous buffer pH 7.4, 25 °C; equilibrium after 24 h (c) or 48 h (d) per footnote
row,Compound,"S0, exp [µM]"
1,c1coc(Sc2ncnc3sccc23)n1 [Compound 8e],1.33 × 10^3 c µM
2,Cn1ccnc1Sc1ncnc2sccc12 [Compound 8c],1780 µM·days
